A short description of this series: Solubility test in water and FaSSIF. In kind it is physicochemical. The settings on record: 37° C., up to 24 hours.
Setting [1] is: thermodynamic from solid, FaSSIF (pH 6.5), read-out: Solubility.
The mark [2] stands for this setting: thermodynamic from solid, Water, read-out: Solubility.

Converted amounts (≈) assume the structure as drawn. Like-named read-outs stand apart in the source and are kept apart here.

The Solubility is how much of the substance goes into solution per volume. As to `CC(C)(O)C1CCC(C)(C2C(O)CC3(C)C4CC(OC(=O)C5CCNCC5)C5C(C)(C)C(F)(F)CCC56CC46CCC23C)O1.Cl` [Compound 2-2, 4-((((2aR,3R,4S,5aS,5bS,7S,7aR,11aR,12aS)-9,9-difluoro-4-hydroxy-3-((2S,5S)-5-(2-hydroxypropan-2-yl)-2-methyltetrahydrofuran-2-yl)-2a,5a,8,8-tetramethyltetradecahydro-1H,12H-cyclopenta[a]cyclopropa[e]phenanthren-7-yl)oxy)carbonyl)piperidin-1-ium Chloride], the Solubility (FaSSIF (pH 6.5)) amounted to 1660 µg/mL and the Solubility (Water) stood at 880 µg/mL.

On to `CC(C)(O)[C@@H]1CC[C@@](C)([C@H]2[C@@H](O)C[C@@]3(C)[C@@H]4C[C@H](OC(=O)COCCOCCOCCN)[C@H]5C(C)(C)C(F)(F)CC[C@@]56C[C@@]46CC[C@]23C)O1.O=C(O)C(F)(F)F` [Compound 2-8, 2-(2-(2-(2-(((2aR,3R,4S,5aS,5bS,7S,7aR,11aR,12aS)-9,9-difluoro-4-hydroxy-3-((2S,5S)-5-(2-hydroxypropan-2-yl)-2-methyltetrahydrofuran-2-yl)-2a,5a,8,8-tetramethyltetradecahydro-1H,12H-cyclopenta[a]cyclopropa[e]phenanthren-7-yl)oxy)-2-oxoethoxy)ethoxy)ethoxy)ethan-1-aminium Trifluoroacetate], for which the Solubility runs as follows: (FaSSIF (pH 6.5)) 4020 µg/mL; (Water) 2050 µg/mL.

As to `CC(C)(O)C1CCC(C)(C2C(O)CC3(C)C4CC(OC(=O)CNCCNCCN)C5C(C)(C)C(F)(F)CCC56CC46CCC23C)O1.O=[N+]([O-])O` [Compound 2-9, 2-((2-((2-(((2aR,3R,4S,5aS,5bS,7S,7aR,11aR,12aS)-9,9-difluoro-4-hydroxy-3-((2S,5S)-5-(2-hydroxypropan-2-yl)-2-methyltetrahydrofuran-2-yl)-2a,5a,8,8-tetramethyltetradecahydro-1H,12H-cyclopenta[a]cyclopropa[e]phenanthren-7-yl)oxy)-2-oxoethyl)amino)ethyl)amino)ethan-1-aminium Nitrate], the Solubility came to 4520 µg/mL (FaSSIF (pH 6.5)) and 2110 µg/mL (Water).

On to `Br.CC(C)(O)C1CCC(C)(C2C(O)CC3(C)C4CC(OC(=O)COCCOCCOCCOCCOCCN)C5C(C)(C)C(F)(F)CCC56CC46CCC23C)O1` [Compound 2-10, 17-(((2aR,3R,4S,5aS,5bS,7S,7aR,11aR,12aS)-9,9-difluoro-4-hydroxy-3-((2S,5S)-5-(2-hydroxypropan-2-yl)-2-methyltetrahydrofuran-2-yl)-2a,5a,8,8-tetramethyltetradecahydro-1H,12H-cyclopenta[a]cyclopropa[e]phenanthren-7-yl)oxy)-17-oxo-3,6,9,12,15-pentaoxaheptadecan-1-aminium Bromide], for which the Solubility (FaSSIF (pH 6.5)) is 4390 µg/mL and the Solubility (Water) is 2280 µg/mL.

On to `CC(C)(O)[C@@H]1CC[C@@](C)([C@H]2[C@@H](O)C[C@@]3(C)[C@@H]4C[C@H](OC(=O)COCCO)[C@H]5C(C)(C)C(F)(F)CC[C@@]56C[C@@]46CC[C@]23C)O1` [Compound 2-11, (2aR,3R,4S,5aS,5bS,7S,7aR,11aR,12aS)-9,9-difluoro-4-hydroxy-3-((2S,5S)-5-(2-hydroxypropan-2-yl)-2-methyltetrahydrofuran-2-yl)-2a,5a,8,8-tetramethyltetradecahydro-1H,12H-cyclopenta[a]cyclopropa[e]phenanthren-7-yl-2-(2-hydroxyethoxy)acetate], for which the Solubility reads like this: under setting [1], 1050 µg/mL (≈ 1710 µM); under setting [2], 550 µg/mL (≈ 898 µM).

With `CC(C)(O)[C@@H]1CC[C@@](C)([C@H]2[C@@H](O)C[C@@]3(C)[C@@H]4C[C@H](OC(=O)COCCOCCO)[C@H]5C(C)(C)C(F)(F)CC[C@@]56C[C@@]46CC[C@]23C)O1` [Compound 2-12, (2aR,3R,4S,5aS,5bS,7S,7aR,11aR,12aS)-9,9-difluoro-4-hydroxy-3-((2S,5S)-5-(2-hydroxypropan-2-yl)-2-methyltetrahydrofuran-2-yl)-2a,5a,8,8-tetramethyltetradecahydro-1H,12H-cyclopenta[a]cyclopropa[e]phenanthren-7-yl-2-(2-(2-hydroxyethoxy)ethoxy) Acetate], the Solubility runs as follows: under setting [1], 1110 µg/mL; under setting [2], 680 µg/mL.

With `CC(C)(O)[C@@H]1CC[C@@](C)([C@H]2[C@@H](O)C[C@@]3(C)[C@@H]4C[C@H](OC(=O)COCCOCCOCCO)[C@H]5C(C)(C)C(F)(F)CC[C@@]56C[C@@]46CC[C@]23C)O1` [Compound 2-13, (2aR,3R,4S,5aS,5bS,7S,7aR,11aR,12aS)-9,9-difluoro-4-hydroxy-3-((2S,5S)-5-(2-hydroxypropan-2-yl)-2-methyltetrahydrofuran-2-yl)-2a,5a,8,8-tetramethyltetradecahydro-1H,12H-cyclopenta[a]cyclopropa[e]phenanthren-7-yl-2-(2-(2-(2-hydroxyethoxy)ethoxy)ethoxy)acetate], the Solubility is 1150 µg/mL (≈ 1640 µM) under setting [1] and 850 µg/mL (≈ 1210 µM) under setting [2].

For `CC(C)(O)[C@@H]1CC[C@@](C)([C@H]2[C@@H](O)C[C@@]3(C)[C@@H]4C[C@H](OC(=O)COCCOCCOCCOCCOCCO)[C@H]5C(C)(C)C(F)(F)CC[C@@]56C[C@@]46CC[C@]23C)O1` [Compound 2-14, (2aR,3R,4S,5aS,5bS,7S,7aR,11aR,12aS)-9,9-difluoro-4-hydroxy-3-((2S,5S)-5-(2-hydroxypropan-2-yl)-2-methyltetrahydrofuran-2-yl)-2a,5a,8,8-tetramethyltetradecahydro-1H,12H-cyclopenta[a]cyclopropa[e]phenanthren-7-yl-17-hydroxy-3,6,9,12,15-pentaoxaheptadecanoate], the Solubility reads like this: under setting [1], 2310 µg/mL (≈ 2930 µM); under setting [2], 1230 µg/mL (≈ 1560 µM).

With `CC(C)C[C@H](N)C(=O)O[C@H]1C[C@@H]2[C@]3(CC[C@]4(C)[C@@H]([C@]5(C)CC[C@@H](C(C)(C)O)O5)[C@@H](O)C[C@@]24C)C[C@@]32CCC(F)(F)C(C)(C)[C@H]12.Cl` [Compound 2-18, (S)-1-(((2aR,3R,4S,5aS,5bS,7S,7aR,11aR,12aS)-9,9-difluoro-4-hydroxy-3-((2S,5S)-5-(2-hydroxypropan-2-yl)-2-methyltetrahydrofuran-2-yl)-2a,5a,8,8-tetramethyltetradecahydro-1H,12H-cyclopenta[a]cyclopropa[e]phenanthren-7-yl)oxy)-4-methyl-1-oxopentan-2-aminium Chloride], the Solubility by setting is: (FaSSIF (pH 6.5)) 1850 µg/mL; (Water) 600 µg/mL.

Consider `Br.CC(C)(O)[C@@H]1CC[C@@](C)([C@H]2[C@@H](O)C[C@@]3(C)[C@@H]4C[C@H](OC(=O)[C@@H](N)CC(N)=O)[C@H]5C(C)(C)C(F)(F)CC[C@@]56C[C@@]46CC[C@]23C)O1` [Compound 2-21, (S)-4-amino-1-(((2aR,3R,4S,5aS,5bS,7S,7aR,11aR,12aS)-9,9-difluoro-4-hydroxy-3-((2S,5S)-5-(2-hydroxypropan-2-yl)-2-methyltetrahydrofuran-2-yl)-2a,5a,8,8-tetramethyltetradecahydro-1H,12H-cyclopenta[a]cyclopropa[e]phenanthren-7-yl)oxy)-1,4-dioxobutan-2-aminium Bromide], for which the Solubility is 3500 µg/mL (FaSSIF (pH 6.5)) and 900 µg/mL (Water).

Consider `CC(C)(O)[C@@H]1CC[C@@](C)([C@H]2[C@@H](O)C[C@@]3(C)[C@@H]4C[C@H](OC(=O)[C@@H](N)Cc5c[nH]cn5)[C@H]5C(C)(C)C(F)(F)CC[C@@]56C[C@@]46CC[C@]23C)O1.O=S(=O)(O)O` [Compound 2-22, (2aR,3R,4S,5aS,5bS,7S,7aR,11aR,12aS)-9,9-difluoro-4-hydroxy-3-((2S,5S)-5-(2-hydroxypropan-2-yl)-2-methyltetrahydrofuran-2-yl)-2a,5a,8,8-tetramethyltetradecahydro-1H,12H-cyclopenta[a]cyclopropa[e]phenanthren-7-yl-L-histidinate Sulfate], for which the Solubility turned out to be 1250 µg/mL (FaSSIF (pH 6.5)) and 700 µg/mL (Water).

Regarding `CC(C)(O)[C@@H]1CC[C@@](C)([C@H]2[C@@H](O)C[C@@]3(C)[C@@H]4C[C@H](OC(=O)[C@@H](N)CCCNC(=N)N)[C@H]5C(C)(C)C(F)(F)CC[C@@]56C[C@@]46CC[C@]23C)O1.Cl.Cl` [Compound 2-23, 1-((S)-4-ammonio-5-(((2aR,3R,4S,5aS,5bS,7S,7aR,11aR,12aS)-9,9-difluoro-4-hydroxy-3-((2S,5S)-5-(2-hydroxypropan-2-yl)-2-methyltetrahydrofuran-2-yl)-2a,5a,8,8-tetramethyltetradecahydro-1H,12H-cyclopenta[a]cyclopropa[e]phenanthren-7-yl)oxy)-5-oxopentyl)guanidinium Chloride], the Solubility by setting is: (FaSSIF (pH 6.5)) 6600 µg/mL; (Water) 2300 µg/mL.

`CC(C)(O)[C@@H]1CC[C@@](C)([C@H]2[C@@H](O)C[C@@]3(C)[C@@H]4C[C@H](OC(=O)[C@@H](N)CC(=O)O)[C@H]5C(C)(C)C(F)(F)CC[C@@]56C[C@@]46CC[C@]23C)O1` [Compound 2-24, (S)-3-carboxy-1-(((2aR,3R,4S,5aS,5bS,7S,7aR,11aR,12aS)-9,9-difluoro-4-hydroxy-3-((2S,5S)-5-(2-hydroxypropan-2-yl)-2-methyltetrahydrofuran-2-yl)-2a,5a,8,8-tetramethyltetradecahydro-1H,12H-cyclopenta[a]cyclopropa[e]phenanthren-7-yl)oxy)-1-oxopropan-2-aminium 2,2,2-trifluoroacetate]: the Solubility reads like this: under setting [1], 5450 µg/mL (≈ 8710 µM); under setting [2], 1500 µg/mL (≈ 2400 µM).

Consider `CC(C)(O)[C@@H]1CC[C@@](C)([C@H]2[C@@H](O)C[C@@]3(C)[C@@H]4C[C@H](OC(=O)[C@@H](N)CS)[C@H]5C(C)(C)C(F)(F)CC[C@@]56C[C@@]46CC[C@]23C)O1.Cl` [Compound 2-25, (R)-1-(((2aR,3R,4S,5aS,5bS,7S,7aR,11aR,12aS)-9,9-difluoro-4-hydroxy-3-((2S,5S)-5-(2-hydroxypropan-2-yl)-2-methyltetrahydrofuran-2-yl)-2a,5a,8,8-tetramethyltetradecahydro-1H,12H-cyclopenta[a]cyclopropa[e]phenanthren-7-yl)oxy)-3-mercapto-1-oxopropan-2-aminium Chloride], for which the Solubility is 3350 µg/mL (FaSSIF (pH 6.5)) and 1020 µg/mL (Water).

For the origin of these results see US20220177511A1, “SERIES OF HALOGENATED TETRACYCLIC TRITERPENE DERIVATIVES AND THEIR PREPARATION AND APPLICATION” (SHANGHAI KING-X BIOTECH CO., LTD, priority 2019, published 2022).
